Our source for the melting point values is a melting point compilation (Tetko et al.; mined from patent text by program, amines drawn as free bases though some values may be those of a salt).

Molecules are shown by their SMILES.

In general, melting point refers to the temperature, or range, at which the solid turns liquid. The compound `O=C1c2ccccc2C(=O)N1C(CCCBr)c1ccccc1` (centres undefined) had a melting point of 88 to 91 °C.
As for `CCCCOc1c(C=O)n(C)c(=O)c2cc(Cl)c(Cl)cc12`, the melting point is 114 to 115 °C.
With `CC1=Cc2ccc(Cl)cc2C(c2ccc([N+](=O)[O-])c(C)c2)=NN1C(=O)NC1CC1` the figure was 221 to 223 °C; with `COc1ccc(S(=O)(=O)C2(C(=O)NO)CCN(Cc3ccc(C)cc3)CC2)cc1`, 176 to 177 °C.
As for `CCN(CC)C(=O)Oc1cc(-c2cccs2)nc2ccccc12`, the figure is 72 °C; as for `CCOC(=O)c1nc(-c2ccc(OCc3ccccc3)cc2)[nH]c1-c1ccc(C)cc1`, 168 to 170 °C; as for `CCOc1ccc(N(C)C=C(C#N)C#N)cc1`, 147 to 148 °C.
As to `COc1ccc(C=C(C#N)C(=O)O)cc1OC`, the melting point was 206 °C.
With `N#Cc1cnn2c1NCC=C2c1ccc(Cl)c(Cl)c1` the figure was 254 to 256 °C.
With `Cc1nc2cc(C(F)(F)F)ccc2n1-c1ccc(OC(C)CCC(=O)O)cc1` (centres undefined) the figure was 67 to 68 °C.
For the compound `O=S1(=O)CCN2C=CC(Cl)=C(c3ccc(Oc4ccccc4)cc3)C2=N1`, the melting point lay within 283 to 284 °C.
As for `CN(C)CC(=O)N1CCN(Cc2ccc3c(c2)Cc2c(-c4ccsc4)n[nH]c2-3)CC1`, the figure is 190 to 192 °C.
As for `CN1CCC(c2n[nH]c3ccccc23)CC1`, the melting point is 168 to 170 °C.
In turn, `CSc1ccc(C(=O)Nc2ccccc2)cc1Nc1cccc(C(F)(F)F)c1` showed a melting point of 169 to 170 °C.
As for `CSCCCC(=O)C(=C1NCCCS1)[N+](=O)[O-]`, the figure is 49 to 49.5 °C.
`O=C(O)C1CC(=O)N(Cc2ccccc2)C1c1ccccc1` (centres undefined) came in with a melting point of 169 to 171 °C.
With `CCN(CC)CCn1cc(C(=O)NCc2ccc(Cl)cc2)c(=O)c2cc(C#CCO)ccc21` the figure was 145 to 148 °C; with `COCn1ccnc1C(O)(c1ccccc1)c1ccc(C(F)(F)F)cc1` (centres undefined), 158 to 159 °C; with `Cc1c(C2=CCC(Cc3ccccc3)(N(C)C)CC2)[nH]c2ccc(C#N)cc12` (centres undefined), 120 to 123 °C.
Compound `O=C(O)c1ccc(-c2nc(-c3ccc(C(F)(F)F)cc3)cs2)cc1` yielded a melting point of 164 to 165 °C.
`COc1ccc(C(=O)c2cccc(C(F)(F)F)c2)cc1`: the melting point lay within 62.5 to 63.5 °C.
With `CCCCc1c2c(cc3ccc(O)cc13)-c1ccc(O)cc1CO2` the figure was 187 to 189 °C; with `CN(c1ccc(Cl)cc1)c1nc(=O)c2ccc(-c3ccccc3)nc2s1`, 279 to 280 °C.
With `CC1CC(=O)NN=C1c1ccc(NC(=O)c2ccccc2O)cc1` (centres undefined) the figure was 218 to 220 °C; with `COc1cc(C(C)=O)ccc1OCCCCN1CCC(c2n[nH]c3ccccc23)CC1`, 133 to 135 °C; with `Cc1c(C)c2c(c(C)c1NCc1ccc(F)cc1)C(c1ccc(F)cc1)C(C)(C)O2` (centres undefined), 118 to 120 °C.
With `CCO[C@@H](Cc1ccc(OCCc2nc(C(C)(C)C)oc2C)c2ccsc12)C(=O)O` the figure was 152 to 153 °C; with `C=CCn1c(C)c(C)c2cnnc(CCc3ccc(F)cc3F)c21`, 118 to 119 °C; with `O=C1c2ccccc2C(=O)N1CCS(=O)(=O)CCO`, 120 to 122 °C.
On to `O=C1NC(=O)C(S(=O)(=O)c2ccc(Br)cc2)S1` (centres undefined), for which the melting point was 156 to 158 °C.
As for `O=C(O)c1cncn1C(c1ccccc1)C1CCCCC1` (centres undefined), the figure is 250 °C; as for `CC(C)(NS(=O)(=O)c1ccccc1)c1ccccc1`, 114 to 115 °C; as for `O=C(NCCOc1ccc(CC(Oc2ccccc2)C(=O)O)cc1Br)c1ccc(-c2ccccn2)cc1` (centres undefined), 83 to 84 °C.
In the case of `CCN1C(=O)C(C(=O)Nc2cccc(C(=O)Nc3ccccc3)c2)c2cc(C(=O)C3CCCC3)ccc21` (centres undefined), the melting point was in the range of 208 to 213 °C.
As for `CN(C)C=C(C=CC#N)c1ccccc1`, the figure is 77 to 83 °C.
With `CCCCCCCCCCCCCCCC(=O)OCC(CO)OC(=O)CCCCCCCCCCCCCCC` (centres undefined) the figure was 67 to 68 °C; with `COc1ccc(-c2cc(C(=O)Nc3cccc(F)n3)c3ccccc3n2)cc1`, 174 to 176 °C.
In the case of `O=C1N(Cc2ccccc2)c2cc(Cl)cc(N3CCNCC3)c2S(=O)(=O)N1Cc1cccc(O)c1`, the melting point is 230 to 231 °C.
The compound `O=c1[nH]c(SCc2ccccc2)nc2c1NCN2C(c1ccccc1)(c1ccccc1)c1ccccc1` gave a melting point of 267 to 270 °C.
As for `O=C(C(=O)c1ccc([N+](=O)[O-])cc1)c1ccc([N+](=O)[O-])cc1`, the figure is 211 to 212 °C; as for `Nc1ccc(Oc2c(Cl)cc(C(F)(F)F)cc2Cl)cc1S(=O)(=O)c1cc[nH]n1`, 232 °C; as for `CCCCOc1ccc(S(=O)(=O)OC2CN(S(=O)(=O)c3ccc(OCCCC)cc3)C2)cc1`, 90 to 93 °C.
With `COC(=O)c1cc(SC)cnc1C1=NC(C)(C(C)C)C(=O)N1` (centres undefined) the figure was 107 to 108 °C; with `CNC(=O)N1CCC(Oc2ccc(C(F)(F)F)cc2)(c2ccccc2)CC1`, 118 to 120 °C.
As for `CC(=O)N1CC(=O)NC(Cc2cccc(NC(=O)OC(C)(C)C)c2)C1=O` (centres undefined), the figure is 189 to 190 °C; as for `CC(N1CCC(n2c(=O)[nH]c3ccccc32)CC1)N1Sc2ccccc2C1C(N)=O` (centres undefined), 174 to 177 °C; as for `Oc1ccc(OCCCCOc2ccc(O)cc2)cc1`, 202 to 204 °C.
As for `OC1(C=Cc2ccc(-c3cccnc3)cc2)CN2CCC1CC2` (centres undefined), the melting point lay in the range of 195 to 198 °C.
Compound `Cc1cc(CC(=O)O)ccc1[N+](=O)[O-]` came in with a melting point of 95 °C.
For the compound `O=C(O)c1ccc(COc2ccc(-c3ccc(-c4c(Cc5ccccc5)oc5ccccc45)cc3)cc2)cc1`, the melting point is 208 to 210 °C.
Regarding `CCCCCOc1ccc(-c2cnc(C#N)nc2)cc1`, the melting point came out at 100 °C.
`N#Cc1cnn(-c2ccccn2)c1N`: the melting point fell in the range of 197 to 200 °C.
For `CCC(C(C)=CC(CNC(=O)c1nc(C)[nH]c1C)=NO)[N+](=O)[O-]` (centres undefined), the melting point lay in the range of 140 to 141 °C.
Compound `Cc1c(C(=O)c2cccc(C(F)(F)F)c2F)c2ccc(Cl)c(Cl)c2n1CCCNS(C)(=O)=O` registered a melting point of 181 °C.
Consider `CCOCCn1c(C2CCN(C)C(c3ccc(C(C)(C)C)cc3)C2)nc2ccccc21` (centres undefined), for which the melting point fell in the range of 51 to 53 °C.
`CN(C)c1c(C#N)c(C(F)(F)F)nn1-c1c(Cl)cc(C(F)(F)F)cc1Cl` returned a melting point of 105 to 107 °C.
With `COC(=O)c1csc(NC(=O)c2cc(OC)c(OC)cc2OC)n1`, the melting point was in the range of 251 to 252 °C.
For `Cc1cc(Nc2ccc(C(=O)O)cc2)c2[nH]ncc2n1`, the melting point lay in the range of 238 to 241 °C.
With `CC(C)c1cccc(C(C)C)c1NC(=O)CN1CCN(CCSc2nc3ncccc3o2)CC1`, the melting point was in the range of 153 to 154 °C.
Compound `NC(CC1CCCCC1)C(O)C(O)C1CC1` (centres undefined) showed a melting point of 141 to 142 °C.
As for `CC(C)Nn1c(CO)nc2c(N)nc3ccccc3c21`, the figure is 228 to 229 °C; as for `COc1ccc(-n2nc(C(F)F)cc2-c2ccc(SC)cc2)cc1`, 100 to 101 °C.
With `CCOC(=O)C(C#N)CCCCCCc1ccc(Cl)cc1` (centres undefined) the figure was 121 to 122 °C.
With `C=Cc1ccc(CSCCO)cc1` the figure was 44 to 45.5 °C.
With `CC(C)(C)OC(=O)N1CCC(c2cnc3oc(-c4ccc(C(F)(F)F)cc4)nc3c2)CC1`, the melting point lay within 184 to 188 °C.
As for `O=C(Nc1ccccc1C(F)(F)F)c1cc(-c2ccc(F)cc2F)ccc1O`, the melting point lay in the range of 180 to 181 °C.
With `CCc1cc2c(=O)n3cc(C(=O)OC)ccc3nc2s1` the figure was 151 to 152 °C; with `CCOC(=O)CCc1cccc(NC(=O)c2cc(-c3ccc(C(F)(F)F)cc3)oc2C)c1`, 134 to 135 °C; with `CCOC(=O)c1ccc2ccccn2c1=O`, 105 to 109 °C.
Take `COC1=CCC(OC)(OC)C=C1CCc1ccc(OC)cc1C`: the melting point lay within 71 to 72 °C.
With `Cc1oc(-c2ccccc2)nc1COc1cccc(N)c1` the figure was 89 to 90 °C; with `COc1ccc(-n2nc(Sc3ccc(C)cc3C)c(C)c(C#N)c2=O)cc1`, 166 to 168 °C; with `O=C(O)Cc1ccc(Cl)cc1OCCc1ccccc1`, 102 to 104 °C.
As for `O=C(c1ccccc1)c1ccc(Cl)c(N=C=S)c1`, the figure is 96.7 °C; as for `CN(C)C1(c2ccccc2)CCC(CNC(=O)Oc2ccccc2)CC1` (centres undefined), 108 to 124 °C.
With `CCCCCCCCCCCCc1ccc(S(=O)(=O)Nc2nnc(CO)s2)cc1` the figure was 138 to 139 °C; with `COc1ccc2cc(-c3csc(-c4ccccc4)n3)ccc2c1`, 191 to 193 °C.
For the compound `CN(C)C(c1ccccc1)C1CCCCC1(O)Cc1cccc(F)c1` (centres undefined), the melting point lay within 146 to 147 °C.
As for `COC(=O)c1cc(C2=CCCO2)c(C(F)(F)F)cc1NC(C)=O`, the figure is 120 to 125 °C; as for `CC(C)C1(C)N=C(c2ncc(C=O)cc2C(=O)O)NC1=O` (centres undefined), 187 to 198 °C.
With `COC(=Cc1ccc(-c2cccc(N(C)C(=O)NC3CCCCC3)c2)cc1)C(=O)O`, the melting point stood at 192 °C.
With `BrCCCCCc1nc2ccccc2[nH]1` the figure was 134 to 136 °C.
`COC(=O)c1ccc(/C=C/c2c(OC)cc3c(c2OC)C(C)(C)CCC3(C)C)cc1` yielded a melting point of 140 to 142 °C.
As for `CCc1cccc(C)c1NCc1nccc2c1nc(C)n2C`, the figure is 141 to 142 °C; as for `O=[N+]([O-])c1cn(-c2cccnc2)nc1Br`, 139 to 141 °C.
As to `O=C1c2ccccc2COc2ccc(CCC(=O)N(O)C3CCCCC3)cc21`, the melting point was in the range of 146 to 147 °C.
Compound `O=C(C=CC(=O)OC(Cl)C(Cl)(Cl)Cl)OC(Cl)C(Cl)(Cl)Cl` (centres undefined) came in with a melting point of 144 °C.
With `CC(C)(C)OC(=O)NCC[C@H]1CC[C@H](COS(C)(=O)=O)CC1` the figure was 83 to 84 °C.
Regarding `COC(=O)[C@H]1[C@@H](N=[N+]=[N-])C(=O)N1Cc1ccc(OC)cc1OC` (relative stereo), the melting point is 82 to 84 °C.
